Data on 17 molecules can be found in patent US8455534B2, “Estrogen receptor modulators and uses thereof” (Aragon Pharmaceuticals, Inc., priority 2010, dated 2013).

Molecules are shown by their SMILES.

One assay concerns the target T1, ER-α (Homo sapiens, UniProt P03372).
T1 sequence (P03372 1-595): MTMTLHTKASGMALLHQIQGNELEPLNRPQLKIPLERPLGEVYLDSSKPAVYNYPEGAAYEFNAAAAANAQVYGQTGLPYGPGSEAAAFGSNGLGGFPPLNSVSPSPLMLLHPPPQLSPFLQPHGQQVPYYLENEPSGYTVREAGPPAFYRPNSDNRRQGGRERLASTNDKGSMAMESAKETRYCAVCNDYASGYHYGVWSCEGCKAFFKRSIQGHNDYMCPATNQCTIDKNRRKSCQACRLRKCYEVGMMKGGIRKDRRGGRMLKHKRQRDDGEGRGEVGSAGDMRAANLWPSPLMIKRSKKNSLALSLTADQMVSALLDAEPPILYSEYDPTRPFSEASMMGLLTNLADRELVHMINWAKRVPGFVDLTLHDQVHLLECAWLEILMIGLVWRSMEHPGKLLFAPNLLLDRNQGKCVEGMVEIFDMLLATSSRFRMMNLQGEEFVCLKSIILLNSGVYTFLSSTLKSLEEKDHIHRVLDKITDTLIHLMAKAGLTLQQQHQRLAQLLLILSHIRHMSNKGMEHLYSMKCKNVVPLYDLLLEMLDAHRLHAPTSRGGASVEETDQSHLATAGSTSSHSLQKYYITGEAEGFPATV
As to the kind of experiment: Breast Cancer Cell ER-α In Cell Western Assay (SP1). It is filed as cell-based. The settings on record: MCF-7 cells, SP1 antibody, 4 or 24 hr post compound addition; for Emax: MCF7, read-out: ER-α In Cell Western Assay (SP1) Max Response; for DC50: read-out: ER-α In Cell Western Assay (SP1) IC50. On the procedure:
MCF-7 cells were adjusted to a concentration of 200,000 cells per mL in RPMI containing 10% charcoal-stripped FBS and 20 mM HEPES. 16 microliters of the cell suspension (3200 cells) was added to each well of a poly-D-lysine 384 well plate, and the cells were incubated overnight to allow the cells to adhere. The following day an eleven point, serial semilog dilution of each compound was added to the cells in 16 μL at a final concentration ranging from 0.3-0.000003 μM. At 4 or 24 hr post compound addition, the cells were fixed (10% formalin in PBS) for 20 minutes. Cells were permeablized in PBS 0.1% Triton and blocked with LICOR blocking buffer (50 μL1/well, 90′). The wells were then incubated overnight at 4° C. with SP1 rabbit monoclonal Ab (Thermo Scientific) diluted 1:1000 in LICOR blocking buffer/0.1% Tween-20. Wells which were treated with blocking buffer with Tween but no antibody were used as a background control. Wells were washed with 0.1% Tween-20/PBS and then incubated in goat anti-rabbit IRDye™ 800CW (LICOR Inc.; 1:1000) and DRAQ5 DNA dye (1:2000 for 2 mM stock) diluted in LICOR blocking buffer containing 0.1% Tween-20 and 0.01% SDS for 60 minutes. Cells were washed (50 μl/well, 5′ each) in 0.1% Tween-20/PBS. Plates were scanned on a LICOR Odyssey infrared imaging system. Integrated intensities in the 800 nm channel and 700 nm channel were measured to determine levels of ER and DNA respectively. Percent ER levels were determined as follows: (Integrated intensity 800 nm sample/integrated intensity 700 nm sample)/(Integrated intensity 800 nm untreated cells/integrated intensity 700 nm untreated cells)×100=% ER levels.

The next assay deals with MCF-7 cells. As to the kind of experiment: Breast Cancer Cell Viability Assay (MCF-7, CellTiter-Glo). Format: cell-based. The note with it: 5 days' compound exposure; for IC50: Homo sapiens, MCF7, 120 h. In outline:
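MCF-7 cells, 320 per well in RPMI with 10% FBS and 20 mM HEPES, adhered overnight, then exposed 5 days to an eleven-point semilog dilution (final 0.3-0.000003 μM). CellTiter-Glo luminescence read; % viability = (sample − cell-free background)/(untreated − background) × 100.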

Take `CC/C(=C(/c1ccc(/C=C/C(=O)O)cc1)c1ccc2[nH]ncc2c1)c1cc(OC)ccc1Cl` [Compound 130, (E)-3-(4-((E)-2-(2-Chloro-5-methoxyphenyl)-1-(1H-indazol-5-yl)but-1-en-1-yl)phenyl)acrylic acid]: at ER-α, the Emax was not below 40% and the DC50 is not above 100 nM. In addition, in the assay on MCF-7 cells, the “MCF7 Viability Assay Max Response” value is “++ (++ = a single % value ≧ 40%)” and the IC50 – broadly, the midpoint of a concentration-inhibition curve – was not above 100 nM.

On to `CC/C(=C(/c1ccc(/C=C/C(=O)O)cc1)c1ccc2[nH]ncc2c1)c1ccc(O)cc1` [Compound 95, (E)-3-(4-((E)-2-(4-Hydroxyphenyl)-1-(1H-indazol-5-yl)but-1-en-1-yl)phenyl)acrylic acid], for which, at ER-α, the Emax is not below 40% and the DC50 was not above 100 nM. In the assay on MCF-7 cells, the “MCF7 Viability Assay Max Response” value is “++ (++ = a single % value ≧ 40%)” and the 50% inhibitory concentration (IC50) is not above 100 nM.

As for `O=C(O)/C=C/c1ccc(/C(=C(\c2ccc(F)cc2Cl)C2CC2)c2ccc3[nH]ncc3c2F)cc1` [Compound 124, (E)-3-(4-((E)-2-(2-Chloro-4-fluorophenyl)-2-cyclopropyl-1-(4-fluoro-1H-indazol-5-yl)vinyl)phenyl)acrylic acid], on ER-α, the Emax was not below 40% and the DC50 is not above 100 nM. In the assay on MCF-7 cells, the “MCF7 Viability Assay Max Response” value is listed as “++ (++ = a single % value ≧ 40%)” and the IC50 was not above 100 nM.

On to `CC/C(=C(/c1ccc(/C=C/C(=O)O)cc1)c1ccc2[nH]ncc2c1Cl)c1ccc(F)cc1Cl` [Compound 73, (E)-3-(4-((E)-1-(4-Chloro-1H-indazol-5-yl)-2-(2-chloro-4-fluorophenyl)but-1-en-1-yl)phenyl)acrylic acid], for which, on ER-α, the Emax was not below 40% and the DC50 was not above 100 nM. In the assay with MCF-7 cells, the “MCF7 Viability Assay Max Response” value was “++ (++ = a single % value ≧ 40%)” and the IC50 was not above 100 nM.

With `CC/C(=C(/c1ccc(/C=C/C(=O)O)cc1)c1ccc2[nH]ncc2c1)c1ccc(Cl)cc1C(F)(F)F` [Compound 114, (E)-3-(4-((E)-2-(4-Chloro-2-(trifluoromethyl)phenyl)-1-(1H-indazol-5-yl)but-1-en-1-yl)phenyl)acrylic acid], at ER-α, the Emax is not below 40% and the DC50 is not above 100 nM. Further, in the assay with MCF-7 cells, the “MCF7 Viability Assay Max Response” value is “++ (++ = a single % value ≧ 40%)” and the IC50 was not above 100 nM.

Take `CC/C(=C(/c1ccc(/C=C/C(=O)O)cc1)c1ccc2[nH]ncc2c1F)c1ccc(Cl)cc1Cl` [Compound 118, (E)-3-(4-((E)-2-(2,4-Dichlorophenyl)-1-(4-fluoro-1H-indazol-5-yl)but-1-en-1-yl)phenyl)acrylic acid]: on ER-α, the Emax was not below 40% and the DC50 was not above 100 nM. Besides, in the assay with MCF-7 cells, the “MCF7 Viability Assay Max Response” value is “++ (++ = a single % value ≧ 40%)” and the IC50 was not above 100 nM.

Take `CC/C(=C(/c1ccc(/C=C/C(=O)O)cc1)c1ccc2c(cnn2C)c1)c1ccccc1Cl` [Compound 145, (E)-3-(4-((E)-2-(2-Chlorophenyl)-1-(1-methyl-1H-indazol-5-yl)but-1-en-1-yl)phenyl)acrylic acid]: at ER-α, the Emax is not below 40% and the DC50 was not above 100 nM. In the assay with MCF-7 cells, the “MCF7 Viability Assay Max Response” value is “++ (++ = a single % value ≧ 40%)” and the IC50 was not above 100 nM.

Turning to `COCCCC/C(=C(/c1ccc(/C=C/C(=O)O)cc1)c1ccc2[nH]ncc2c1)c1ccccc1` [Compound 81, (E)-3-(4-((E)-1-(1H-Indazol-5-yl)-6-methoxy-2-phenylhex-1-en-1-yl)phenyl)acrylic acid], at ER-α, the Emax was not below 40% and the DC50 was not above 100 nM. Moreover, in the assay on MCF-7 cells, the “MCF7 Viability Assay Max Response” value is “++ (++ = a single % value ≧ 40%)” and the IC50 is more than 100 nM.

On to `CC/C(=C(/c1ccc(/C=C/C(=O)O)cc1)c1ccc2[nH]nc(F)c2c1)c1ccccc1` [Compound 86, (E)-3-(4-((E)-1-(3-Fluoro-1H-indazol-5-yl)-2-phenylbut-1-en-1-yl)phenyl)acrylic acid], for which, on ER-α, the Emax is not below 40% and the DC50 was not above 100 nM. Also, in the assay with MCF-7 cells, the “MCF7 Viability Assay Max Response” value is given as “++ (++ = a single % value ≧ 40%)” and the IC50 is not above 100 nM.

`O=C(O)/C=C/c1ccc(/C(=C(/CCCl)c2ccc(F)cc2Cl)c2ccc3[nH]ncc3c2)cc1` [Compound 67, (E)-3-(4-((E)-4-Chloro-2-(2-chloro-4-fluorophenyl)-1-(1H-indazol-5-yl)but-1-en-1-yl)phenyl)acrylic acid]: at ER-α, the Emax is not below 40% and the DC50 was not above 100 nM. Besides, in the assay on MCF-7 cells, the “MCF7 Viability Assay Max Response” value was “++ (++ = a single % value ≧ 40%)” and the half-maximal inhibitory concentration (IC50) was not above 100 nM.

As for `CCOC(=O)/C=C/c1ccc(/C(=C(/CC)c2ccccc2)c2ccc3[nH]ncc3c2)cc1` [Compound 1, (E)-Ethyl 3-(4-((E)-1-(1H-indazol-5-yl)-2-phenylbut-1-en-1-yl)phenyl)acrylate], on ER-α, the Emax was not below 40% and the DC50 was not above 100 nM. Further, in the assay on MCF-7 cells, the “MCF7 Viability Assay Max Response” value is “+ (+ = a single % value < 40%)” and the half-maximal inhibitory concentration (IC50) is not above 100 nM.

As to `CC/C(=C(/c1ccc(/C=C/C(=O)O)cc1)c1ccc2[nH]ncc2c1)c1cc(F)ccc1C` [Compound 30, (E)-3-(4-((E)-2-(5-Fluoro-2-methylphenyl)-1-(1H-indazol-5-yl)but-1-en-1-yl)phenyl)acrylic acid], on ER-α, the Emax is not below 40% and the DC50 is not above 100 nM. In addition, in the assay with MCF-7 cells, the “MCF7 Viability Assay Max Response” value is on record as “++ (++ = a single % value ≧ 40%)” and the IC50 is not above 100 nM.

On to `CC/C(=C(/c1ccc(/C=C/C(=O)O)c(OC)c1)c1ccc2[nH]ncc2c1)c1ccccc1` [Compound 109, (E)-3-(4-((Z)-1-(1H-Indazol-5-yl)-2-phenylbut-1-en-1-yl)-2-methoxyphenyl)acrylic acid], for which, on ER-α, the Emax was not below 40%. Further, in the assay with MCF-7 cells, the “MCF7 Viability Assay Max Response” value is on record as “++ (++ = a single % value ≧ 40%)” and the IC50 was not above 100 nM.

For `CC/C(=C(/c1ccc(/C=C/C(=O)O)cc1)c1ccc2[nH]ncc2c1)c1ccccc1Cl` [Compound 14, (E)-3-(4-((E)-2-(2-chlorophenyl)-1-(1H-indazol-5-yl)but-1-en-1-yl)phenyl)acrylic acid], the Emax on ER-α is not below 40%. Further, in the assay with MCF-7 cells, the “MCF7 Viability Assay Max Response” value is given as “++ (++ = a single % value ≧ 40%)” and the IC50 was not above 100 nM.

`CC/C(=C(/c1ccc(/C=C/C(=O)O)cc1)c1ccc2[nH]ncc2c1)c1ccc(Cl)cc1Cl` [Compound 113, (E)-3-(4-((E)-2-(2,4-Dichlorophenyl)-1-(1H-indazol-5-yl)but-1-en-1-yl)phenyl)acrylic acid]: on ER-α, the Emax is not below 40% and the DC50 was not above 100 nM. Moreover, in the assay with MCF-7 cells, the “MCF7 Viability Assay Max Response” value is “++ (++ = a single % value ≧ 40%)” and the IC50 is not above 100 nM.

Regarding `CC/C(=C(/c1ccc(/C=C/C(=O)O)c(F)c1)c1ccc2[nH]ncc2c1)c1ccccc1` [Compound 106, (E)-3-(4-((Z)-1-(1H-Indazol-5-yl)-2-phenylbut-1-en-1-yl)-2-fluorophenyl)acrylic acid], on ER-α, the Emax is not below 40% and the DC50 was not above 100 nM. Moreover, in the assay on MCF-7 cells, the “MCF7 Viability Assay Max Response” value is given as “++ (++ = a single % value ≧ 40%)” and the IC50 is not above 100 nM.

Regarding `CC/C(=C(/c1ccc(/C=C/C(=O)O)cc1)c1ccc2[nH]ncc2c1)c1ccc(F)cc1C` [Compound 25, (E)-3-(4-((E)-2-(4-Fluoro-2-methylphenyl)-1-(1H-indazol-5-yl)but-1-en-1-yl)phenyl)acrylic acid], on ER-α, the Emax was not below 40% and the DC50 was not above 100 nM. For the same molecule, in the assay on MCF-7 cells, the “MCF7 Viability Assay Max Response” value is recorded as “++ (++ = a single % value ≧ 40%)” and the IC50 was not above 100 nM.
